Reference: US8846933B2, “N-link hydroxamic acid derivatives useful as antibacterial agents” (Pfizer Inc., priority 2009, dated 2014)

Assays:
[1] = test system: Pseudomonas aeruginosa UI-18: Wild-type (PA-7); assay: MIC determination (CLSI), strain PA-7; type: cell-based; conditions: strain PA-7, unit assumed
In short: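 MIC determined by broth dilution per CLSI M7-A7 guidelines with M100-S18 interpretive standards. Test organism: wild-type Pseudomonas aeruginosa UI-18, designated PA-7.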

[2] = test system: Escherichia coli EC-1: VOGEL, mouse virulent; assay: MIC determination (CLSI), strain EC-1; type: cell-based; conditions: strain EC-1, unit assumed
In short: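 The mouse-virulent VOGEL isolate of E. coli, EC-1, served as test organism. Minimum inhibitory concentration was measured by CLSI dilution methodology (M7-A7; M100-S18 standards).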

[3] = generated in the same manner as in Table 4

Structure (SMILES)	PA-7 (MIC) [1, 3] [µg/mL]	EC-1 (MIC) [2, 3] [µg/mL]	PA-7 (MIC) [1] [µg/mL]	EC-1 (MIC) [2] [µg/mL]
CC(CCn1ccc(-c2ccc([N+](=O)[O-])cc2)cc1=O)(C(=O)NO)S(C)(=O)=O (stereo not drawn) [Example 101, N-hydroxy-2-methyl-2-(methylsulfonyl)-4-[4-(4-nitrophenyl)-2-oxopyridin-1(2H)-yl]butanamide]	4	8	–	–
C[C@@](CCn1ccc(-c2ccc(F)cc2F)cc1=O)(C(=O)NO)S(C)(=O)=O [Example 321, (2R)-4-[4-(2,4-difluorophenyl)-2-oxopyridin-1(2H)-yl]-N-hydroxy-2-methyl-2-(methylsulfonyl)butanamide]	–	–	1	1
C[C@@](CCn1ccc(-c2ccc(Oc3ccnc4ccccc34)cc2)cc1=O)(C(=O)NO)S(C)(=O)=O [Example 444]	–	–	2	0.125
CC(CCn1ccc(-c2ccoc2)cc1=O)(C(=O)NO)S(C)(=O)=O (stereo not drawn) [Example 118, 4-[4-(3-furyl)-2-oxopyridin-1(2H)-yl]-N-hydroxy-2-methyl-2-(methylsulfonyl)butanamide]	64	> 64	–	–
CC(CCn1ccc(-c2ccc(OCCCN3CCSCC3)cc2)cc1=O)(C(=O)NO)S(C)(=O)=O (stereo not drawn) [Example 81, N-hydroxy-2-methyl-2-(methylsulfonyl)-4-{2-oxo-4-[4-(3-thiomorpholin-4-ylpropoxy)phenyl]pyridin-1(2H)-yl}butanamide]	4	2	–	–
C[C@@](CCn1ccc(-c2ccc(Oc3cccnc3C#N)cc2)cc1=O)(C(=O)NO)S(C)(=O)=O [Example 442, (2R)-4-[4-{4-[(2-cyanopyridin-3-yl)oxy]phenyl}-2-oxopyridin-1(2H)-yl]-N-hydroxy-2-methyl-2-(methylsulfonyl)butanamide]	–	–	4	4
COCCOCCOc1ccc(-c2ccn(CC[C@](C)(C(=O)NO)S(C)(=O)=O)c(=O)c2)cc1 [Example 403, (2R)-N-hydroxy-4-[4-{4-[2-(2-methoxyethoxy)ethoxy]phenyl}-2-oxopyridin-1(2H)-yl]-2-methyl-2-(methylsulfonyl)butanamide]	–	–	4	1
CC(CCn1ccc(-c2ccc(F)c(Cl)c2)cc1=O)(C(=O)NO)S(C)(=O)=O (stereo not drawn) [Example 214]	–	–	2	1
CC(CCn1ccc(-c2ccc(OCCCn3cncn3)c(Cl)c2Cl)cc1=O)(C(=O)NO)S(C)(=O)=O (stereo not drawn) [Example 292, 4-[4-{2,3-dichloro-4-[3-(1H-1,2,4-triazol-1-yl)propoxy]phenyl}-2-oxopyridin-1(2H)-yl]-N-hydroxy-2-methyl-2-(methylsulfonyl)butanamide]	–	–	16	8
COc1cnc(-c2ccc(-c3ccn(CC[C@](C)(C(=O)NO)S(C)(=O)=O)c(=O)c3)cc2)nc1 [Example 387, (2R)-N-hydroxy-4-{4-[4-(5-methoxypyrimidin-2-yl)phenyl]-2-oxopyridin-1(2H)-yl}-2-methyl-2-(methylsulfonyl)butanamide]	–	–	0.5	0.06
Cc1ccc(-c2ccn(CCC(C)(C(=O)NO)S(C)(=O)=O)c(=O)c2)o1 (stereo not drawn) [Example 158]	64	64	–	–
CC(CCn1ccc(-c2ccc3cc(CO)ccc3c2)cc1=O)(C(=O)NO)S(C)(=O)=O (stereo not drawn) [Example 309, N-hydroxy-4-{4-[6-(hydroxymethyl)-2-naphthyl]-2-oxopyridin-1(2H)-yl}-2-methyl-2-(methylsulfonyl)butanamide]	–	–	4	1
C[C@@](CCn1ccc(-c2ccc(-n3ncc[n+]3[O-])cc2)cc1=O)(C(=O)NO)S(C)(=O)=O [Example 401, (2R)-N-hydroxy-2-methyl-2-(methylsulfonyl)-4-{4-[4-(1-oxido-2H-1,2,3-triazol-2-yl)phenyl]-2-oxopyridin-1(2H)-yl}butanamide]	–	–	8	8
CC(CCn1ccc(-c2ccc(F)cc2Cl)cc1=O)(C(=O)NO)S(C)(=O)=O (stereo not drawn) [Example 155, 4-[4-(2-chloro-4-fluorophenyl)-2-oxopyridin-1(2H)-yl]-N-hydroxy-2-methyl-2-(methylsulfonyl)butanamide]	0.5	4	–	–
CN(C)c1ccc(-c2ccn(CCC(C)(C(=O)NO)S(C)(=O)=O)c(=O)c2)cn1 (stereo not drawn) [Example 116, 4-[6-(dimethylamino)-2′-oxo-3,4′-bipyridin-1′(2′H)-yl]-N-hydroxy-2-methyl-2-(methylsulfonyl)butanamide]	64	16	–	–
COCc1ccccc1-c1ccn(CCC(C)(C(=O)NO)S(C)(=O)=O)c(=O)c1 (stereo not drawn) [Example 191, N-hydroxy-4-{4-[2-(methoxymethyl)phenyl]-2-oxopyridin-1(2H)-yl}-2-methyl-2-(methylsulfonyl)butanamide]	–	–	> 64	> 64
CC(CCn1ccc(-c2ccc(OCCCO)c(F)c2)cc1=O)(C(=O)NO)S(C)(=O)=O (stereo not drawn) [Example 247, 4-{4-[3-fluoro-4-(3-hydroxypropoxy)phenyl]-2-oxopyridin-1(2H)-yl}-N-hydroxy-2-methyl-2-(methylsulfonyl)butanamide]	–	–	8	4

Structure (SMILES)	PA-7 (MIC) [1, 3] [µg/mL]	EC-1 (MIC) [2, 3] [µg/mL]	PA-7 (MIC) [1] [µg/mL]	EC-1 (MIC) [2] [µg/mL]
CC(C#N)Sc1ccc(-c2ccn(CC[C@](C)(C(=O)NO)S(C)(=O)=O)c(=O)c2)cc1 (stereo partly drawn) [Example 357]	–	–	1	1
CC(CCn1ccc(-c2ccc(-c3ccncc3)c(F)c2)cc1=O)(C(=O)NO)S(C)(=O)=O (stereo not drawn) [Example 298, 4-[4-(3-fluoro-4-pyridin-4-ylphenyl)-2-oxopyridin-1(2H)-yl]-N-hydroxy-2-methyl-2-(methylsulfonyl)butanamide]	–	–	4	0.5
Cc1c(F)cccc1-c1ccn(CCC(C)(C(=O)NO)S(C)(=O)=O)c(=O)c1 (stereo not drawn) [Example 153, 4-[4-(3-fluoro-2-methylphenyl)-2-oxopyridin-1(2H)-yl]-N-hydroxy-2-methyl-2-(methylsulfonyl)butanamide]	8	32	–	–
CC(CCn1ccc(-c2cc(F)ccc2O)cc1=O)(C(=O)NO)S(C)(=O)=O (stereo not drawn) [Example 117, 4-[4-(5-fluoro-2-hydroxyphenyl)-2-oxopyridin-1(2H)-yl]-N-hydroxy-2-methyl-2-(methylsulfonyl)butanamide]	> 64	> 64	–	–
Cc1ccc(-c2ccn(CCC(C)(C(=O)NO)S(C)(=O)=O)c(=O)c2)cc1N (stereo not drawn) [Example 115, 4-[4-(3-amino-4-methylphenyl)-2-oxopyridin-1(2H)-yl]-N-hydroxy-2-methyl-2-(methylsulfonyl)butanamide]	16	64	–	–
CC(CCn1ccc(-c2ccc(Cl)c(C#N)c2)cc1=O)(C(=O)NO)S(C)(=O)=O (stereo not drawn) [Example 135, 4-[4-(4-chloro-3-cyanophenyl)-2-oxopyridin-1(2H)-yl]-N-hydroxy-2-methyl-2-(methylsulfonyl)butanamide]	16	16	–	–
C[C@@](CCn1ccc(-c2ccc(C(F)(F)F)nc2)cc1=O)(C(=O)NO)S(C)(=O)=O [Example 331]	–	–	32	0.25
Cc1cc(-c2ccc(-c3ccn(CC[C@](C)(C(=O)NO)S(C)(=O)=O)c(=O)c3)cc2)[nH]n1 [Example 369]	–	–	4	2
C[C@@](CCn1ccc(-c2ccc(CO)nc2)cc1=O)(C(=O)NO)S(C)(=O)=O [Example 418, (2R)-N-hydroxy-4-[6-(hydroxymethyl)-2′-oxo-3,4′-bipyridin-1′(2′H)-yl]-2-methyl-2-(methylsulfonyl)butanamide]	–	–	64	> 64
Cc1nc(C)n(-c2ccc(-c3ccn(CC[C@](C)(C(=O)NO)S(C)(=O)=O)c(=O)c3)cc2)n1 [Example 384, (2R)-4-{4-[4-(3,5-dimethyl-1H-1,2,4-triazol-1-yl)phenyl]-2-oxopyridin-1(2H)-yl}-N-hydroxy-2-methyl-2-(methylsulfonyl)butanamide]	–	–	16	8
COc1ccc(OC)c(-c2ccn(CCC(C)(C(=O)NO)S(C)(=O)=O)c(=O)c2)c1 (stereo not drawn) [Example 195, 4-[4-(2,5-dimethoxyphenyl)-2-oxopyridin-1(2H)-yl]-N-hydroxy-2-methyl-2-(methylsulfonyl)butanamide]	–	–	> 64	> 64
CC(C)(O)Cc1cccc(-c2ccn(CCC(C)(C(=O)NO)S(C)(=O)=O)c(=O)c2)c1 (stereo not drawn) [Example 262, N-hydroxy-4-{4-[3-(2-hydroxy-2-methylpropyl)phenyl]-2-oxopyridin-1(2H)-yl}-2-methyl-2-(methylsulfonyl)butanamide]	–	–	> 64	64
C[C@@](CCn1ccc(-c2ccc3c(c2)CCC3=O)cc1=O)(C(=O)NO)S(C)(=O)=O [Example 339, (2R)-N-hydroxy-2-methyl-2-(methylsulfonyl)-4-[2-oxo-4-(1-oxo-2,3-dihydro-1H-inden-5-yl)pyridin-1(2H)-yl]butanamide]	–	–	4	4
C[C@@](CCn1ccc(-c2ccc(Oc3ncccn3)cc2)cc1=O)(C(=O)NO)S(C)(=O)=O [Example 424, (2R)-N-hydroxy-2-methyl-2-(methylsulfonyl)-4-{2-oxo-4-[4-(pyrimidin-2-yloxy)phenyl]pyridin-1(2H)-yl}butanamide]	–	–	4	4
COc1ccc(-c2ccn(CC[C@](C)(C(=O)NO)S(C)(=O)=O)c(=O)c2)cn1 [Example 285, (2R)-N-hydroxy-4-(6-methoxy-2′-oxo-3,4′-bipyridin-1′(2′H)-yl)-2-methyl-2-(methylsulfonyl)butanamide]	–	–	4	4
CC(C)(C#N)Cc1ccc(-c2ccn(CC[C@](C)(C(=O)NO)S(C)(=O)=O)c(=O)c2)cc1 [Example 343, (2R)-4-{4-[4-(2-cyano-2-methylpropyl)phenyl]-2-oxopyridin-1(2H)-yl}-N-hydroxy-2-methyl-2-(methylsulfonyl)butanamide]	–	–	2	8
